Experimental findings from publication PMC8383266 (Biochemistry, 2021) are described below.

This assay deals with BlaC (β-lactamase) (Mycobacterium tuberculosis, UniProt P9WKD3, G144S). In kind it is biochemical.

In the case of `NC(=O)[C@@H]1CC[C@@H]2CN1C(=O)N2OS(=O)(=O)O` [avibactam], the “activity of BlaC G132S in the presence of avibactam (Figure S13, not shown)” value is given as “we found BlaC G132S is also more sensitive to avibactam”.
